Reference: article PMC2628629 (Bioorganic & medicinal chemistry letters, 2008)

Target: E. coli MenE (Escherichia coli, UniProt P37353)
Experiment: MenE inhibition, coupled assay with MenE and MenB
Type: biochemical
Settings: for Inhibition of MenE, result in words: inhibitor at up to 200 μM

Chain of E. coli MenE (P37353 whole entry): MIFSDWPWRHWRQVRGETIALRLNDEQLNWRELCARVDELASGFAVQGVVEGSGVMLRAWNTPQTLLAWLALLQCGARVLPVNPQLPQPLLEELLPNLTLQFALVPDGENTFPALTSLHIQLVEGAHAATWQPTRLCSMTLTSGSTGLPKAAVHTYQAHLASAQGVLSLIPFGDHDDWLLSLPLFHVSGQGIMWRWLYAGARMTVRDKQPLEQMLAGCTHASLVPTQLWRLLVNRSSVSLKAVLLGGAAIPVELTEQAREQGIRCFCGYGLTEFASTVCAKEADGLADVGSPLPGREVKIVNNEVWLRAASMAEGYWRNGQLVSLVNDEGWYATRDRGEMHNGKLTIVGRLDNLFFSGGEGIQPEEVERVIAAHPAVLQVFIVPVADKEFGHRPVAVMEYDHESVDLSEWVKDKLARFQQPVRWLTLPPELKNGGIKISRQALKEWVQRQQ

| SMILES | Inhibition of MenE, result in words | Kinetic analysis of MenE inhibition (mode of binding) |
| --- | --- | --- |
| COC(=O)c1ccccc1C(=O)CCC(=O)NS(=O)(=O)OC[C@H]1O[C@@H](n2cnc3c(N)ncnc32)[C@H](O)[C@@H]1O [Compound 1, MeOSB-AMS] | effective inhibitors |  |
| COC(=O)c1ccccc1C(=O)CCC(=O)NS(=O)(=O)NC[C@H]1O[C@@H](n2cnc3c(N)ncnc32)[C@H](O)[C@@H]1O [Compound 2, MeOSB-AMSN] | effective inhibitors |  |
| COC(=O)c1ccccc1C(=O)CC/C=C/S(=O)(=O)NC[C@H]1O[C@@H](n2cnc3c(N)ncnc32)[C@H](O)[C@@H]1O [Compound 3, MeOSB-AVSN] |  | slow-binding inhibitor |
